Measurements as given in patent publication EP4755878A1, “PHOTOCHROMIC COMPOUND, PHENOL DERIVATIVE, CURABLE COMPOSITION, OPTICAL ARTICLE, LENS, AND EYEGLASS” (TOKUYAMA CORPORATION, priority 2023, dated 2025).

How the values were obtained:
[1] = Photochromic properties of photochromic laminate (plastic lens) made by coating method; type: physicochemical; settings: for Color developing density at 23°C: absorbance difference after 240 seconds irradiation at 23°C; for Color developing density at 35°C: absorbance difference after 240 seconds irradiation at 35°C; for Maximum absorption wavelength: after color development, second absorption wavelength (lower line of pair)
Description: First, the photochromic compound obtained in Example 1 above, a photoinitiator, and polymerizable compounds were mixed to obtain a curable composition.
As the polymerizable compounds, a blend of the following radically-polymerizable monomers in combination was used.
• Polyethylene glycol dimethacrylate (average molecular weight: 736): 42 parts by mass • Polyethylene glycol dimethacrylate (average molecular weight: 536): 12 parts by mass • Trimethylolpropane trimethacrylate: 38 parts by mass • γ-Methacryloyloxypropyltrimethoxysilane: 2 parts by mass • Glycidyl methacrylate: 1 part by mass.
Note that in the curable composition, the photochromic compound obtained in Example 1 above was added to be 0.25 mmol taking the total amount of the radically-polymerizable monomers as 100 g. The following were used as additives.
(stabilizer, Irganox 245): 1 part by mass Bis(1,2,2,6,6-pentamethyl-4-piperidyl) sebacate: 3 parts by mass Leveling agent from DuPont Toray Specialty Materials K.K. (L7001): 0.1 parts by mass.
Note that the above-mentioned additives are described with blending ratios taking a total of the radically-polymerizable monomers as 100 parts by mass.
Using this curable composition, a photochromic laminate was obtained by a lamination process described below with the polymerization described below being carried out.
First, a thiourethane plastic lens with a center thickness of 2 mm and a refractive index of 1.60 was prepared as an optical substrate. Note that the thiourethane plastic lens had been alkaline-etched beforehand in a 10% aqueous sodium hydroxide solution at 50°C for 5 minutes, and then thoroughly washed with distilled water.
A spin coater (1H-DX2, manufactured by MIKASA CO., LTD) was used to coat a surface of the above-mentioned plastic lens with a moisture-curable primer (product name: TR-SC-P, manufactured by Tokuyama Corporation) at a rotation speed of 70 rpm for 15 seconds, followed by at 1000 rpm for 10 seconds. Then, about 2 g of the photochromic curable composition obtained as above was spin-coated at a rotation speed of 60 rpm for 40 seconds, followed by at 600 rpm for 10 to 20 seconds so as to achieve a photochromic coating layer with a film thickness of 40 µm.
The lens having the surface coated with the photochromic curable composition (photochromic coating layer) was irradiated with light for 90 seconds in a nitrogen gas atmosphere using a metal halide lamp with an output of 200 mW/cm^2 to cure the coating film. The coating was then further heated at 110°C for 1 hour to produce a photochromic laminate with a photochromic layer.
Photochromic laminates were produced using the photochromic compounds obtained in Examples 2 to 19 in the same manner as in Example 20.
Photochromic laminates were obtained in the same manner as in Example 20 using photochromic compounds represented by the following formulas (A) to (F). [drawing 143] [drawing 144] [drawing 145] [drawing 146] [drawing 147] [drawing 148] [drawing 149] [drawing 150]
The resulting photochromic laminates were evaluated by the methods described below.
Table 3 summarizes the results of Examples 20, 32, and 34, and Comparative Examples 1 to 6, and Table 4 summarizes the results of Examples 21 to 31, 33, and 35 to 38. The relationship between the fading half-life at 23°C and the color development ratio at the higher temperature of the photochromic laminates according to Examples and Comparative Examples are shown in a graph in FIG. 1.
Photochromic laminates were formed using the photochromic compound obtained in Examples 61 to 71 in the same manner as in Example 20.

[2] = Photochromic properties of photochromic layer (binder sheet) made by binder method; settings: for Color developing density at 23°C: absorbance difference after 240 seconds irradiation at 23°C; for Color developing density at 35°C: absorbance difference after 240 seconds irradiation at 35°C; for Maximum absorption wavelength: after color development, second absorption wavelength (lower line of pair)
Description: This is the maximum absorption wavelength after color development determined by a spectrophotometer manufactured by Otsuka Electronics Co., Ltd. (instantaneous multichannel photo detector MCPD3000) and was used as an index of a color tone upon color development.
This is a difference between an absorbance {ε(240)} after irradiation with light at the above-mentioned maximum absorption wavelength at 23°C for 240 seconds and an absorbance ε(0) when not irradiated with light, and was used as an index of a color developing density. The higher this value is, the better photochromic property is.
This is a difference between an absorbance {ε(240)} after irradiation with light at first and second absorption wavelengths at 35°C for 240 seconds and an absorbance ε(0) when not irradiated with light, and was used as an index of a color developing density. The higher this value is, the better photochromic property is.
Color developing density at 35°C (A35) /color developing density at 23°C (A23) × 100(%). The higher this value is, the smaller the difference in color developing density between the higher temperature and the lower temperature is, and the smaller the temperature dependence is.
This is the period of time required for the absorbance at a maximum absorption wavelength of a sample to decrease to 1/2 of {ε(240)-ε(0)}, when light irradiation is stopped after the sample had been irradiated with light at 23°C for 240 seconds, and was used as an index of a color fading rate. The shorter this period of time is, the higher the color fading rate is.
A binder sheet was made according to the following method. […] As the first and second optical sheets, polycarbonate sheets with a thickness of 400 µm were used.
Note that the photochromic compound was added to be 0.25 mmol relative to 100 parts by mass of the terminally non-reactive urethaneurea resin.

[3] = Photochromic properties of photochromic cured product made by kneading method; type: physicochemical; settings: for Maximum absorption wavelength: 1 mm, after color development, second absorption wavelength (lower line of pair); for Color developing density at 23°C: absorbance difference after 240 seconds irradiation at 23°C; for Color developing density at 35°C: absorbance difference after 240 seconds irradiation at 35°C
Description: First, the photochromic compound obtained in Example 1, additives, and polymerizable compounds were mixed to obtain a curable composition. As the polymerizable compounds, a blend of the following polymerizable monomers in combination was used. • 1,3-Bis(isocyanatomethyl)cyclohexane: 36.7 parts by mass Pentaerythritol tetrakis(3-mercaptopropionate): 39.4 parts by mass • Polyoxyethylene polyoxypropylene lauryl ether (WONDERSURF 140 from Aoki Oil Industrial Co., Ltd.): 17.4 parts by mass 1-Decanethiol: 2.8 parts by mass • RX-1 prepared according to the method described in Patent Document 12: 3.8 parts by mass Note that in the curable composition, the photochromic compound was added to be 0.106 mmol taking the total amount of the polymerizable monomers as 100 g.
The following additives were used. Dimethyltin dichloride: 0.05 parts by mass • Irganox 245 from BASF Japan Ltd.: 0.1 parts by mass • 2-Ethylhexyl 4-methoxycinnamate: 0.6 parts by mass
The prepared curable composition was sufficiently degassed, and then injected into a glass mold provided with a gap of 1 mm, and the curable composition was polymerized via casting polymerization. […] After the polymerization, the cured product was removed from the glass mold, to obtain photochromic cured product having a thickness of 1 mm. The resulting photochromic cured product was evaluated in the same manner as in Example 23.
(Examples 51 to 60, and Comparative Examples 11 to 14) Photochromic cured products were formed using the photochromic compound shown in Table 6 in the same manner as in Example 50.

Color developing density at 23°C ([1]; first absorption wavelength)	Color developing density at 23°C ([1]; second absorption wavelength)	Color developing density at 35°C ([1]; first absorption wavelength)	Color developing density at 35°C ([1]; second absorption wavelength)	Maximum absorption wavelength [1] [nm]	Color developing density at 23°C ([2]; first absorption wavelength)	Color developing density at 23°C ([2]; second absorption wavelength)	Color developing density at 35°C ([2]; first absorption wavelength)	Color developing density at 35°C ([2]; second absorption wavelength)	Maximum absorption wavelength [2] [nm]	Maximum absorption wavelength [3] [nm]	Color developing density at 23°C ([3]; first absorption wavelength)	Color developing density at 23°C ([3]; second absorption wavelength)	Color developing density at 35°C ([3]; first absorption wavelength)	Color developing density at 35°C ([3]; second absorption wavelength)	SMILES
0.53 -	0.89 -	0.36 -	0.61 -	593	0.55 -	0.90 -	0.37 -	0.61 -	595	599	0.56 -	0.92 -	0.38 -	0.65 -	COCC1(COC)c2cc(N(C)c3ccccc3)ccc2-c2c1c1c(c3ccccc23)OC(c2ccc(OC)cc2)(c2ccc(OC)c(F)c2)C=C1 (stereo not drawn) [Formula (16-3)]
1.43 -	0.83 -	1.06 -	0.62 -	608	1.47 -	0.85 -	1.06 -	0.61 -	609	615	1.50 -	0.86 -	1.12 -	0.66 -	COCCCCC1(CCCCOC)c2cc(N(C)c3ccccc3)ccc2-c2c1c1c(c3cc(OC)c(OC)cc23)OC(c2ccc(OC)cc2)(c2ccc(OC)cc2)C=C1 [Formula (2-7)]

Further lines, the molecule ahead of its results:

SMILES	Color developing density at 23°C ([1]; first absorption wavelength)	Color developing density at 23°C ([1]; second absorption wavelength)	Color developing density at 35°C ([1]; first absorption wavelength)	Color developing density at 35°C ([1]; second absorption wavelength)	Maximum absorption wavelength [1] [nm]	Color developing density at 23°C ([2]; first absorption wavelength)	Color developing density at 23°C ([2]; second absorption wavelength)	Color developing density at 35°C ([2]; first absorption wavelength)	Color developing density at 35°C ([2]; second absorption wavelength)	Maximum absorption wavelength [2] [nm]	Maximum absorption wavelength [3] [nm]	Color developing density at 23°C ([3]; first absorption wavelength)	Color developing density at 23°C ([3]; second absorption wavelength)	Color developing density at 35°C ([3]; first absorption wavelength)	Color developing density at 35°C ([3]; second absorption wavelength)
CCCCC1(CCCC)c2cc(N(CC)c3ccccc3)ccc2-c2c1c1c(c3cc(C)c(-c4ccc(OC)cc4)cc23)OC(c2ccc(C)cc2)(c2ccc(N(C)c3ccccc3)cc2)C=C1 (stereo not drawn) [Formula (12-5)]	0.86 -	1.49 -	0.64 -	1.11 -	624	0.87 -	1.51 -	0.61 -	1.08 -	625	632	0.88 -	1.52 -	0.67 -	1.15 -
COc1ccc(C2(c3ccc(OC)cc3)C=Cc3c4c(c5ccc(OC)cc5c3O2)-c2ccc(N(c3ccccc3)c3ccccc3)cc2C4(C)C)cc1 [Formula (15-2)]	0.92 -	1.07 -	0.67 -	0.79 -	619	0.93 -	1.08 -	0.67 -	078 -	616	622	0.95 -	1.10 -	0.70 -	0.83 -
CCCOc1ccc(C2(c3ccc(OC)cc3)C=Cc3c4c(c5cc(C)c(OC)cc5c3O2)-c2ccc(N3CCSc5ccccc53)cc2C4(CCC)CCC)cc1 (stereo not drawn) [Formula (9-2)]	1.01 -	0.90 -	0.74 -	0.66 -	609	1.04 -	0.91 -	0.73 -	0.64 -	607	614	1.05 -	0.92 -	0.78 -	0.69 -
